The source of these data is US11377441B2, “Covalent inhibitors of KRAS” (Araxes Pharma LLC, priority 2017, dated 2022).

SMILES strings stand for the structures.

The target in this test is T1, KRAS G12C 1-169, his-tagged protein, GDP-loaded (Homo sapiens, UniProt P01116, G12C).
T1 construct: KRAS G12C 1-169, his-tagged protein, GDP-loaded
Put plainly: Biochemical assay: covalent modification of KRAS G12C measured by mass spectrometry (RapidFire/TOF or Q-Exactive). It is filed as binding. The note with it: covalent binding to (modification of) KRAS G12C after a ten minute incubation period. An outline of the steps:
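Intact-mass readout (TOF or Q-Exactive, charge-envelope deconvolution) gives percent covalent adduct from modified and unmodified species. Compound at 10, 30 or 100 μM was incubated at room temperature for 10 min to 24 h with 2 μM or 0.5 μM GDP-bound KRAS G12C 1-169 in Hepes/NaCl/MgCl2 buffer, then acid-quenched.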
Turning to `C=CC(=O)N1C[C@H](C)N(c2nc(C#CCN(C)C)nc3c(F)c(-c4c(C)ccc5cnn(C)c45)c(Cl)cc23)C[C@H]1C` [Compound 233, 1-((2R,5S)-4-(6-chloro-7-(1,6-dimethyl-1H-indazol-7-yl)-2-(3-(dimethylamino)prop-1-ynyl)-8-fluoroquinazolin-4-yl)-2,5-dimethylpiperazin-1-yl)prop-2-en-1-one], the Binding % entry is given as “+++ (+++ indicates binding activity greater than 80%)”. Regarding `C=CC(=O)N1C[C@H](C)N(c2nc(OCCN3CCC(F)(F)C3)nc3c(F)c(-c4c(C)ccc5onc(N)c45)c(Cl)cc23)C[C@H]1C` [Compound 85, 1-((2R,5S)-4-(7-(3-amino-5-methylbenzo[d]isoxazol-4-yl)-6-chloro-2-(2-(3,3-difluoropyrrolidin-1-yl)ethoxy)-8-fluoroquinazolin-4-yl)-2,5-dimethylpiperazin-1-yl)prop-2-en-1-one], the Binding % result is “+++ (+++ indicates binding activity greater than 80%)”. For the molecule `C=CC(=O)N1C[C@H](C)N(c2nc(OC[C@@H]3CCCN3CC3CC3)nc3c(F)c(-c4c(C)ccc5cnn(C)c45)c(Cl)cc23)C[C@H]1C` [Compound 239, 1-((2R,5S)-4-(6-chloro-2-(((S)-1-(cyclopropylmeth-yl)pyrrolidin-2-yl)methoxy)-7-(1,6-dimethyl-1H-indazol-7-yl)-8-fluoroquinazolin-4-yl)-2,5-dimethylpiperazin-1-yl)prop-2-en-1-one], the Binding % result was “+++ (+++ indicates binding activity greater than 80%)”.

For `C=CC(=O)N1C[C@H](C)N(c2nc(N3CC(N(C)C)C3)nc3c(F)c(-c4c(C)ccc5[nH]nc(CC)c45)c(Cl)cc23)C[C@H]1C` [Compound 61, 1-((2R,5S)-4-(6-chloro-2-(3-(dimethylamino)azetidin-1-yl)-7-(3-ethyl-5-methyl-1H-indazol-4-yl)-8-fluoroquinazolin-4-yl)-2,5-dimethylpiperazin-1-yl)prop-2-en-1-one], the Binding % result is reported as “+++ (+++ indicates binding activity greater than 80%)”. Regarding `C=CC(=O)N1C[C@H](C)N(c2nc(N3CC(N(C)C)C3)nc3c(F)c(-c4c(C)ccc5cnn(C6CC6)c45)c(C(F)(F)F)cc23)C[C@H]1C` [Compound 173, 1-((2R,5S)-4-(7-(1-cyclopropyl-6-methyl-1H-indazol-7-yl)-2-(3-(dimethylamino)azetidin-1-yl)-8-fluoro-6-(trifluoromethyl)quina-zolin-4-yl)-2,5-dimethylpiperazin-1-yl)prop-2-en-1-one], the Binding % result is reported as “+++ (+++ indicates binding activity greater than 80%)”.

For `C=CC(=O)N1C[C@H](C)N(c2nc(N3CC(N(C)C)C3)nc3c(F)c(-c4c(C)ccc5[nH]nc(NC(C)=O)c45)c(Cl)cc23)C[C@H]1C` [Compound 119, N-(4-(4-((2S,5R)-4-acryloyl-2,5-dimethylpiperazin-1-yl)-6-chloro-2-(3-(dimethylamino)azetidin-1-yl)-8-fluoroquinazolin-7-yl)-5-methyl-1H-indazol-3-yl)acetamide], the Binding % entry is “+ (+ indicates binding activity greater than 0% and up to 50%)”. Regarding `C=CC(=O)N1C[C@H](C)N(c2nc(N3CC(N(C)C)C3)nc3c(F)c(-c4c(C)ccc5cnn(C)c45)c(Cl)cc23)C[C@H]1C` (atropisomer, axis not shown) [Compound 131, 1-((2R,5S)-4-((S)-6-chloro-7-(1,6-dimethyl-1H-indazol-7-yl)-2-(3-(dimethylamino)azetidin-1-yl)-8-fluoroquinazolin-4-yl)-2,5-dimethylpiperazin-1-yl)prop-2-en-1-one], the Binding % entry was “+ (+ indicates binding activity greater than 0% and up to 50%)”. In the case of `C=CC(=O)N1C[C@H](C)N(c2nc(N3CC(N(C)C)C3)nc3c(F)c(-c4c(C)ccc5[nH]nc(C)c45)c(Cl)cc23)C[C@H]1C` (atropisomer, axis not shown) [Compound 97, 1-((2R,5S)-4-((S)-6-chloro-7-(3,5-dimethyl-1H-indazol-4-yl)-2-(3-(dimethylamino)azetidin-1-yl)-8-fluoroquinazolin-4-yl)-2,5-dimethylpiperazin-1-yl)prop-2-en-1-one], the Binding % result was “+ (+ indicates binding activity greater than 0% and up to 50%)”. For the molecule `C=CC(=O)N1C[C@H](C)N(c2nc(NCCN3CCOCC3)nc3c(F)c(-c4c(C)ccc5[nH]nc(N)c45)c(Cl)cc23)C[C@H]1C` [Compound 79, 1-((2R,5S)-4-(7-(3-amino-5-methyl-1H-indazol-4-yl)-6-chloro-8-fluoro-2-(2-morpholinoethylamino)quinazolin-4-yl)-2,5-dimethylpiperazin-1-yl)prop-2-en-1-one], the Binding % result is “+++ (+++ indicates binding activity greater than 80%)”.

`C=CC(=O)N1[C@H](C)CN(c2nc(N3CC(N(C)C)C3)nc3c(F)c(-c4c(C)ccc5cnn(C)c45)c(Cl)cc23)C[C@@H]1C` (atropisomer, axis not shown) [Compound 141, 1-((2S,6R)-4-((S)-6-chloro-7-(1,6-dimethyl-1H-indazol-7-yl)-2-(3-(dimethylamino)azetidin-1-yl)-8-fluoroquinazolin-4-yl)-2,6-dimethylpiperazin-1-yl)propan-2-en-1-one]: the Binding % entry was “+ (+ indicates binding activity greater than 0% and up to 50%)”. Turning to `C=CC(=O)N1C[C@H](C)N(c2nc(N3CC(N(C)C)C3)nc3c(F)c(-c4c(C)ccc5[nH]nc(C6CC6)c45)c(Cl)cc23)C[C@@H]1C` (atropisomer, axis not shown) [Compound 255, 1-((2S,5S)-4-((R)-6-chloro-7-(3-cyclopropyl-5-methyl-1H-indazol-4-yl)-2-(3-(dimethylamino)azetidin-1-yl)-8-fluoroquinazolin-4-yl)-2,5-dimethylpiperazin-1-yl)prop-2-en-1-one], the Binding % result is “+ (+ indicates binding activity greater than 0% and up to 50%)”. As for `C=CC(=O)N1CCN(c2nc(N3CC(N(C)C)C3)nc3c(F)c(-c4c(C)ccc5[nH]nc(C6CC6)c45)c(Cl)cc23)C[C@H]1C` (atropisomer, axis not shown) [Compound 101, 1-((R)-4-((S)-6-chloro-7-(3-cyclopropyl-5-methyl-1H-indazol-4-yl)-2-(3-(dimethylamino)azetidin-1-yl)-8-fluoroquinazolin-4-yl)-2-methylpiperazin-1-yl)prop-2-en-1-one], the entry is “+ (+ indicates binding activity greater than 0% and up to 50%)”; as for `C=CC(=O)N1C[C@H](C)N(c2nc(OCCN3CCC(F)(F)C3)nc3c(F)c(-c4c(C)ccc5[nH]nc(N)c45)c(Cl)cc23)C[C@H]1C` (atropisomer, axis not shown) [Compound 66, 1-((2R,5S)-4-((S)-7-(3-amino-5-methyl-1H-indazol-4-yl)-6-chloro-2-(2-(3,3-difluoropyrrolidin-1-yl)ethoxy)-8-fluoroquinazolin-4-yl)-2,5-dimethylpiperazin-1-y)prop-2-en-1-one], “+ (+ indicates binding activity greater than 0% and up to 50%)”; as for `C=CC(=O)N1C[C@H](C)N(c2nc(N3CC(N(C)C)C3)nc3c(F)c(-c4cccc5[nH]nc(N)c45)c(Cl)cc23)C[C@H]1C` [Compound 2, 1-((2R,5S)-4-(7-(3-amino-1H-indazol-4-yl)-6-chloro-2-(3-(dimethylamino)azetidin-1-yl)-8-fluoroquinazolin-4-yl)-2,5-dimethylpiperazin-1-yl)prop-2-en-1-one], “++ (++ indicates binding activity from 50 to 80%)”.
